Assay results reported in US4063014A, “4"-O-sulfonyl erythromycin-9-O-oxime derivatives” (Abbott Laboratories, priority 1975, dated 1977).

Test system: S.aureus (Smith)
Experiment: S.aureus (Smith) infection, oral medication
Assay type: in vivo
Parameters: DOSAGE LEVELS 300 / DOSAGE LEVELS 150 / DOSAGE LEVELS 75 / DOSAGE LEVELS 37.5 / DOSAGE LEVELS 18.75: unit not given here
Details: for DOSAGE LEVELS 18.75: dosage level 18.75, infection 10-100 LD50, Rt-IP; for DOSAGE LEVELS 37.5: dosage level 37.5, infection 10-100 LD50, Rt-IP; for DOSAGE LEVELS 75: dosage level 75, infection 10-100 LD50, Rt-IP; for DOSAGE LEVELS 150: dosage level 150, infection 10-100 LD50, Rt-IP; for DOSAGE LEVELS 300: dosage level 300, infection 10-100 LD50, Rt-IP

| Compound | DOSAGE LEVELS 18.75 | DOSAGE LEVELS 37.5 | DOSAGE LEVELS 75 | DOSAGE LEVELS 150 | DOSAGE LEVELS 300 | ED50 (Staphylococcus aureus, infection 10-100 LD50, Rt-IP, read-out: CD50 (the source's name)) |
| --- | --- | --- | --- | --- | --- | --- |
| CC[C@H]1OC(=O)[C@H](C)[C@@H](O[C@H]2C[C@@](C)(OC)[C@@H](OS(=O)(=O)CCNC(=O)Nc3ccccc3)[C@H](C)O2)[C@H](C)[C@@H](O[C@@H]2O[C@H](C)C[C@H](N(C)C)[C@H]2O)[C@](C)(O)C[C@@H](C)C(=NOC)[C@H](C)[C@@H](O)[C@]1(C)O [VI, 4"-O-[β-(3-Phenylureido)-Ethyl]sulfonyl Erythromycin A-9-O-Methyloxime] | 10 | 20 | 20 | 10 | 50 | – |
| CC[C@H]1OC(=O)[C@H](C)[C@@H](O[C@H]2C[C@@](C)(OC)[C@@H](OS(=O)(=O)CCNC(=O)c3ccc([N+](=O)[O-])cc3)[C@H](C)O2)[C@H](C)[C@@H](O[C@@H]2O[C@H](C)C[C@H](N(C)C)[C@H]2O)[C@](C)(O)C[C@@H](C)C(=NOC)[C@H](C)[C@@H](O)[C@]1(C)O [Example XV, 4"-O-[β-(p-Nitrobenzamido)ethyl]Sulfonyl Erythromycin A-9-O-Methyloxime] | 10 | 10 | 0 | 0 | 60 | – |
| CC[C@H]1OC(=O)[C@H](C)[C@@H](O[C@H]2C[C@@](C)(OC)[C@@H](OS(=O)(=O)CCNS(=O)(=O)c3ccc([N+](=O)[O-])cc3)[C@H](C)O2)[C@H](C)[C@@H](O[C@@H]2O[C@H](C)C[C@H](N(C)C)[C@H]2O)[C@](C)(O)C[C@@H](C)C(=NOC)[C@H](C)[C@@H](O)[C@]1(C)O [XVII, 4"-O-[β-(p-Nitrobenzenesulfonamido)Ethyl]Sulfonyl Erythromycin A-9-O-Methyloxime] | 0 | 10 | 10 | 0 | 80 | – |
| CC[C@H]1OC(=O)[C@H](C)[C@@H](O[C@H]2C[C@@](C)(OC)[C@@H](OS(=O)(=O)CCNC(=O)CNC(=O)OCc3ccccc3)[C@H](C)O2)[C@H](C)[C@@H](O[C@@H]2O[C@H](C)C[C@H](N(C)C)[C@H]2O)[C@](C)(O)C[C@@H](C)C(=NOC)[C@H](C)[C@@H](O)[C@]1(C)O [XII, 4"-O-[β-(N-Carbobenzyloxyglycyl)Amidoethyl]Sulfonyl Erythromycin A-9-O-Methyloxime] | 20 | 0 | 0 | 0 | 30 | > 300 mg/kg |
| CC[C@H]1OC(=O)[C@H](C)[C@@H](O[C@H]2C[C@@](C)(OC)[C@@H](OS(=O)(=O)CCNC(=S)Nc3ccccc3)[C@H](C)O2)[C@H](C)[C@@H](O[C@@H]2O[C@H](C)C[C@H](N(C)C)[C@H]2O)[C@](C)(O)C[C@@H](C)C(=NOC)[C@H](C)[C@@H](O)[C@]1(C)O [Example V, 4"-O-[β-(3-Phenylthioureido)-1-Ethyl]sulfonyl Erythromycin-A-9-O-Methyloxime] | 0 | 0 | 0 | 20 | 80 | – |
